These results are taken from PubChem BioAssay (NCI).

Molecules are shown by their SMILES.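 Method: 48-hour compound exposure of cells in 96-well plates, five concentrations, linear interpolation of endpoints. TGI denotes the concentration required for complete inhibition of growth.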

Among the test systems are SK-MEL-5 melanoma; CAKI-1 renal; PC-3 prostate; RXF 393 renal; OVCAR-8 ovarian; RPMI-8226 leukemia; A549 NSCLC; SW-620 colon; SK-MEL-2 melanoma; HOP-62 NSCLC; MDA-MB-231 breast; SK-MEL-28 melanoma.
What all share (assay): inhibition of tumour cell growth, NCI panel, 48 h

Consider `CN(C)c1ccc(/C=C/C=C(/C#N)c2ccccc2)cc1`, for which the TGI with SK-MEL-5 melanoma was greater than 100 µM; in the assay on CAKI-1 renal, greater than 100 µM; in the assay with PC-3 prostate it was greater than 100 µM; in the assay with RXF 393 renal, greater than 79.5 µM; in the assay with OVCAR-8 ovarian, greater than 91.9 µM; in the assay with RPMI-8226 leukemia, greater than 95.3 µM. Besides, the TGI is greater than 100 µM with A549 NSCLC; 72.5 µM in the assay on SW-620 colon; greater than 93 µM in the assay with SK-MEL-2 melanoma; greater than 97 µM in the assay on HOP-62 NSCLC; greater than 93.8 µM in the assay on MDA-MB-231 breast; greater than 100 µM in the assay on SK-MEL-28 melanoma.

Take `CCC(CCCC[C@@H]1CC[C@H]2CC(=O)C[C@@H]12)OC` (stereo partly drawn): the TGI with SK-MEL-5 melanoma, with CAKI-1 renal, in the assay on PC-3 prostate, in the assay with RXF 393 renal, in the assay on OVCAR-8 ovarian and in the assay on RPMI-8226 leukemia was greater than 100 µM in each case. Moreover, the TGI in the assay with A549 NSCLC, in the assay on SW-620 colon, in the assay on SK-MEL-2 melanoma, in the assay with HOP-62 NSCLC, with MDA-MB-231 breast and in the assay on SK-MEL-28 melanoma was greater than 100 µM each time.

For `C=CC[C@H]1[C@H](O[Si](C)(C)C(C)(C)C)C=CC(=O)[C@@H]1CC(=O)N(Cc1ccccc1)Cc1ccccc1`, the TGI was 20.7 µM with SK-MEL-5 melanoma; 90.2 µM with CAKI-1 renal; greater than 100 µM in the assay on PC-3 prostate; 27.4 µM with RXF 393 renal; greater than 100 µM in the assay on OVCAR-8 ovarian; greater than 100 µM in the assay on RPMI-8226 leukemia. The TGI in the assay with A549 NSCLC was greater than 100 µM; in the assay with SW-620 colon it was greater than 100 µM; with SK-MEL-2 melanoma it was 38.3 µM; with HOP-62 NSCLC, greater than 100 µM; with MDA-MB-231 breast, 41.2 µM; in the assay with SK-MEL-28 melanoma it was greater than 100 µM.

As for `COC(=O)/N=[N+](\[O-])C(c1ccc(OC)cc1)C1CCCCC1` (stereo not drawn), the TGI in the assay on SK-MEL-5 melanoma is greater than 41.4 µM; with CAKI-1 renal it was 10.3 µM; with PC-3 prostate it was 22.5 µM; with RXF 393 renal it was 28.3 µM; in the assay on OVCAR-8 ovarian it was 38.3 µM; in the assay with RPMI-8226 leukemia it was 4.55 µM. The TGI with A549 NSCLC was 34.9 µM; in the assay with SW-620 colon, 24.3 µM; in the assay with SK-MEL-2 melanoma, 31.8 µM; with HOP-62 NSCLC, 16.9 µM; in the assay on MDA-MB-231 breast, 32.2 µM; in the assay on SK-MEL-28 melanoma it was 38.7 µM.

As for `Cc1ccc2c(n1)C(=O)c1ccccc1C2=O`, the TGI is 19.7 µM with SK-MEL-5 melanoma; greater than 89.2 µM with CAKI-1 renal; 68.8 µM with PC-3 prostate; 87.2 µM in the assay on RXF 393 renal; 74.8 µM in the assay on OVCAR-8 ovarian; greater than 95.8 µM in the assay with RPMI-8226 leukemia. The TGI in the assay on A549 NSCLC is 69 µM; in the assay with SW-620 colon, greater than 95.4 µM; with SK-MEL-2 melanoma it was greater than 89 µM; with HOP-62 NSCLC it was greater than 85.4 µM; in the assay on MDA-MB-231 breast it was 75.5 µM; with SK-MEL-28 melanoma, greater than 100 µM.

Turning to `COC(=O)/C=c1/c2ccccc2n2nc3ccccc3c12`, the TGI in the assay on SK-MEL-5 melanoma, with CAKI-1 renal, in the assay on PC-3 prostate, with RXF 393 renal, with OVCAR-8 ovarian and in the assay with RPMI-8226 leukemia was greater than 100 µM throughout. Besides, the TGI in the assay on A549 NSCLC is greater than 100 µM; in the assay with SW-620 colon, greater than 100 µM; in the assay on SK-MEL-2 melanoma, greater than 100 µM; in the assay on HOP-62 NSCLC, greater than 100 µM; in the assay with MDA-MB-231 breast it was 91.3 µM; with SK-MEL-28 melanoma, greater than 100 µM.

For `CN(CCc1ccc(N)cc1)[C@H]1CCCC[C@H]1N1CCCC1`, the TGI in the assay on SK-MEL-5 melanoma, with CAKI-1 renal, with PC-3 prostate, with RXF 393 renal, in the assay with OVCAR-8 ovarian and with RPMI-8226 leukemia was greater than 100 µM in each case. For the same compound, the TGI in the assay with A549 NSCLC, in the assay on SW-620 colon, with SK-MEL-2 melanoma, in the assay with HOP-62 NSCLC, in the assay with MDA-MB-231 breast and in the assay with SK-MEL-28 melanoma was greater than 100 µM each time.

Consider `C=CC[C@H](C)CCC(=O)N1[C@H]2CC3CC[C@@]2(CS1(=O)=O)C3(C)C`, for which the TGI in the assay with SK-MEL-5 melanoma was 51.3 µM; with CAKI-1 renal it was greater than 100 µM; with PC-3 prostate it was greater than 100 µM; in the assay with RXF 393 renal, greater than 100 µM; with OVCAR-8 ovarian, greater than 100 µM; with RPMI-8226 leukemia it was greater than 100 µM. Moreover, the TGI with A549 NSCLC, in the assay with SW-620 colon, with SK-MEL-2 melanoma, with HOP-62 NSCLC, in the assay on MDA-MB-231 breast and in the assay with SK-MEL-28 melanoma was greater than 100 µM in each case.

On to `OC1COC(n2c3ccc(Br)cc3c3ccc4c5ccccc5[nH]c4c32)C(O)C1O` (stereo not drawn), for which the TGI turned out to be 5.2 µM with SK-MEL-5 melanoma; 10.6 µM in the assay on CAKI-1 renal; 12 µM with PC-3 prostate; 7.37 µM in the assay with RXF 393 renal; 15.8 µM in the assay on OVCAR-8 ovarian; 15.8 µM in the assay with RPMI-8226 leukemia. Moreover, the TGI with A549 NSCLC is 23.7 µM; with SW-620 colon it was 29.4 µM; in the assay on SK-MEL-2 melanoma, 19.8 µM; in the assay on HOP-62 NSCLC, 14.7 µM; in the assay with MDA-MB-231 breast, 7.47 µM; in the assay with SK-MEL-28 melanoma, 28.9 µM.
